Patent US20250122218A1, “MODULATORS OF CYSTIC FIBROSIS TRANSMEMBRANE CONDUCTANCE REGULATOR” (Vertex Pharmaceuticals Incorporated, priority 2022, published 2025)

target: T1, CFTR in F508del/MF-HBE cells (Homo sapiens, UniProt P13569, DEL508-508); test: Ussing chamber assay of CFTR-mediated short-circuit currents (identification of potentiator compounds); assay type: cell-based; conditions: potentiator incubated 18-24 hours at 37° C. in combination with 10 μM corrector, in the presence of 20% human serum, CFTR-mediated ISC
T1 construct: human bronchial epithelial (HBE) cells derived from CF subjects heterozygous for F508del and a minimal function CFTR mutation; endogenous in cells; host or cells: primary human bronchial epithelial cells from CF subjects (F508del/MF-HBE)
T1 sequence (P13569 with tags, fused parts or gaps DEL508-508): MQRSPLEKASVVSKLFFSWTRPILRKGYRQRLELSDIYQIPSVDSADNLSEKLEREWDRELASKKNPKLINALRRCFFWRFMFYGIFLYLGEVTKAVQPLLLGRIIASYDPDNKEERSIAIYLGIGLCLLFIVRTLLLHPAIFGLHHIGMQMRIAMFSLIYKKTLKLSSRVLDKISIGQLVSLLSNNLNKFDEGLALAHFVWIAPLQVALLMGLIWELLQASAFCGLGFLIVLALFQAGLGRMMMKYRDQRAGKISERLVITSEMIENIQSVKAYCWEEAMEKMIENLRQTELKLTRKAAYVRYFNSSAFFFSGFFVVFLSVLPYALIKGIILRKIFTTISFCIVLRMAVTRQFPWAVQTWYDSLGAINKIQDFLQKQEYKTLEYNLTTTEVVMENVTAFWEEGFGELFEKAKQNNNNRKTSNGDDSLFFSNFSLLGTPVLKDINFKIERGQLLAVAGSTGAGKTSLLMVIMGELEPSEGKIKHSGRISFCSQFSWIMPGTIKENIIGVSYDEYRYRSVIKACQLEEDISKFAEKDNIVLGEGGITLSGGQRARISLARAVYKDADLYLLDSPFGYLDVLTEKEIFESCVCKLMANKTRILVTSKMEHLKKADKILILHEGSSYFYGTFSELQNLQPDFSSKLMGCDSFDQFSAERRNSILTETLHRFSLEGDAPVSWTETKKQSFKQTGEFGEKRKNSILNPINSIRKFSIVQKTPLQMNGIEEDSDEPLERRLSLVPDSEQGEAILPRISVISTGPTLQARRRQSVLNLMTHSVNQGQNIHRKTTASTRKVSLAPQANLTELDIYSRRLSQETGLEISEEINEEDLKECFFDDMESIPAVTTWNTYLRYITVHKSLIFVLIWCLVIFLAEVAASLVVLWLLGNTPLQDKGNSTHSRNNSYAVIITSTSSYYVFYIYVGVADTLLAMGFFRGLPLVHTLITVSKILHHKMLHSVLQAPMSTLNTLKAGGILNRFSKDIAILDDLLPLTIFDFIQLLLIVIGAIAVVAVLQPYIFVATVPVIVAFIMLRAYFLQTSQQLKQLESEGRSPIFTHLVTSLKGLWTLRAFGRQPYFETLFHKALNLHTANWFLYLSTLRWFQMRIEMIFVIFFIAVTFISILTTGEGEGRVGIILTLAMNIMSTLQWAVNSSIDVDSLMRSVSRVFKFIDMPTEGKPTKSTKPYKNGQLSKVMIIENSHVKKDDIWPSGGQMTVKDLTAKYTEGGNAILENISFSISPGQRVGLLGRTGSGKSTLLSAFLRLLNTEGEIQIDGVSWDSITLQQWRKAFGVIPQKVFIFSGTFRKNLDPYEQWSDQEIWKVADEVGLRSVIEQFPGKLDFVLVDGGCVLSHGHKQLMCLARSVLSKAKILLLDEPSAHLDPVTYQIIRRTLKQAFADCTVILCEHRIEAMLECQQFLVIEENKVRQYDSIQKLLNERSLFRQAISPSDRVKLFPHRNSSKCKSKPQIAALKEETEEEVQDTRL
Outline: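 F508del/MF-HBE cultures were preincubated 18-24 h at 37° C with potentiator plus 10 μM of a fixed corrector compound in 20% human serum; compounds were kept present during measurement. ISC was recorded under voltage clamp (0 mV, 37° C, amiloride apical) and taken as the 20 μM forskolin peak minus the current after inhibitor cocktail.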

Row | Compound | EC50 [nM]
1 | Nc1cc(C(F)(F)F)c2nc1-c1nnc(o1)[C@@](O)(C(F)(F)F)CCCCCN(Cc1cccc3ccccc13)C2=O [Compound 110, (6R)-17-Amino-6-hydroxy-12-(1-naphthylmethyl)-6,15-bis (trifluoromethyl)-19-oxa-3,4,12,18-tetrazatricyclo [12.3.1.12,5] nonadeca-1(18),2,4,14,1 6-pentaen-13-one] | < 500
2 | Nc1cc(C(F)(F)F)c2nc1-c1nnc(o1)C(O)(C(F)(F)F)CCCCCCC1=NN=C2O1 (single isomer, unassigned) [Compound 32, 20-amino-6,18-bis(trifluoromethyl)-22,23-dioxa-3,4,14,15,21-pentaazatetracyclo[15.3.1.12,5.113,16]tricosa-1(21),2,4,13,15,17,19-heptaen-6-ol] | < 500
3 | CC(C)(C)c1ccc(C2(N3CCCCCC(O)(C(F)(F)F)C4=NN=C(O4)c4nc(c(C(F)(F)F)cc4N)C3=O)CC2)cc1 (single isomer, unassigned) [Compound 228, 17-amino-12-[1-(4-tert-butylphenyl)cyclo-propyl]-6-hydroxy-6,15-bis(trifluoromethyl)-19-oxa-3,4,12,18-tetrazatricyclo [12.3.1.12,5] nonadeca-1(18),2,4,14,16-pentaen-13-one] | < 500
4 | CC1(C)CCCC[C@](O)(C(F)(F)F)C2=NN=C(O2)c2nc(c(C(F)(F)F)cc2N)C(=O)C1 [Compound 47, (6R)-17-amino-6-hydroxy-11,11-dimethyl-6,15-bis(trifluoromethyl)-19-oxa-3,4,18-triazatricyclo[12.3.1.12,5]nonadeca-1(18),2,4,14,16-pentaen-13-one] | < 500
5 | Cc1cccc(CN2CCCCC[C@](O)(C(F)(F)F)C3=NN=C(O3)c3nc(c(C(F)(F)F)cc3N)C2=O)c1 [Compound 212, (6R)-17-amino-6-hydroxy-12-(m-tolylmethyl)-6,15-bis(trifluoromethyl)-19-oxa-3,4,12,18-tetrazatricyclo [12.3.1.12,5] nonadeca-1(18),2,4,14,16-pentaen-13-one] | < 500
6 | Nc1cc(C(F)(F)F)c2nc1-c1nnc(o1)C(O)(C(F)(F)F)CCCCCCC2O (single isomer, unassigned) [Compound 10, 17-amino-6,15-bis(trifluoromethyl)-19-oxa-3,4,18-triazatricyclo[12.3.1.12,5]nonadeca-1(18),2,4,14,16-pentaene-6,13-diol] | < 500
7 | N#CC1CCCCc2ccc(F)c(c2)C(O)(C(F)(F)F)C2=NN=C(O2)c2nc1c(C(F)(F)F)cc2N (single isomer, unassigned) [Compound 67, 20-amino-8-fluoro-6-hydroxy-6,18-bis(trifluoromethyl)-23-oxa-3,4,21-triazatetracyclo[15.3.1.12,5.17,11]tricosa-1(21),2,4,7,9,11(22),17,19-octaene-16-carbonitrile] | < 500
8 | CC(C)n1nccc1CN1CCCCC[C@](O)(C(F)(F)F)C2=NN=C(O2)c2nc(c(C(F)(F)F)cc2N)C1=O [Compound 129, (6R)-17-amino-6-hydroxy-12-[(2-isopropylpyrazol-3-yl)methyl]-6,15-bis (trifluoromethyl)-19-oxa-3,4,12,18-tetrazatricyclo [12.3.1.12,5] nonadeca-1(18),2,4,14,1 6-pentaen-13-one] | < 500
9 | Nc1cc(C(F)(F)F)c2nc1-c1nnc(o1)[C@@](O)(C(F)(F)F)CCCCCN(Cc1ccc(F)c(F)c1)C2=O [Compound 146, (6R)-17-amino-12-[(3,4-difluorophenyl)methyl]-6-hydroxy-6,15-bis (trifluoromethyl)-19-oxa-3,4,12,18-tetrazatricyclo [12.3.1.12,5] nonadeca-1(18),2,4,14,1 6-pentaen-13-one] | < 500
10 | Nc1cc(C(F)(F)F)c2nc1-c1nnc(o1)C(O)(C(F)(F)F)CCCCN(Cc1ccc(OC(F)(F)F)cc1)C2=O (single isomer, unassigned) [Compound 235, 16-amino-6-hydroxy-11-[[4-(trifluoromethoxy)phenyl]methyl]-6,14-bis(trifluoromethyl)-18-oxa-3,4,11,17-tetrazatricyclo [11.3.1.12,5] octadeca-1(17),2,4,13,15-pentaen-12-one] | < 500
11 | CC1(C)Cc2cc(CN3CCCCC[C@](O)(C(F)(F)F)C4=NN=C(O4)c4nc(c(C(F)(F)F)cc4N)C3=O)ccc2O1 [Compound 150, (6R)-17-amino-12-[(2,2-dimethyl-3H-benzofuran-5-yl)methyl]-6-hydroxy-6,15-bis (trifluoromethyl)-19-oxa-3,4,12,18-tetrazatricyclo [12.3.1.12,5] nonadeca-1(18),2,4,14,1 6-pentaen-13-one] | < 500
12 | CC(C)(C)Cc1ccc(CN2CCCCC[C@](O)(C(F)(F)F)C3=NN=C(O3)c3nc(c(C(F)(F)F)cc3N)C2=O)cc1 [Compound 170, (6R)-17-amino-12-[[4-(2,2-dimethylpropyl)phenyl]methyl]-6-hydroxy-6,15-bis (trifluoromethyl)-19-oxa-3,4,12,18-tetrazatricyclo [12.3.1.12,5] nonadeca-1(18),2,4,14,1 6-pentaen-13-one] | < 500
13 | COc1cccc(CN2CCCCC[C@](O)(C(F)(F)F)C3=NN=C(O3)c3nc(c(C(F)(F)F)cc3N)C2=O)c1 [Compound 138, (6R)-17-amino-6-hydroxy-12-[(3-methoxyphenyl)methyl]-6,15-bis (trifluorom ethyl)-19-oxa-3,4,12,18-tetrazatricyclo [12.3.1.12,5] nonadeca-1(18),2,4,14,1 6-pentaen-13-one] | < 500
14 | Nc1cc(C(F)(F)F)c2nc1-c1nnc(o1)[C@@](O)(C(F)(F)F)CCCCCN(C13CCC(CC1)CC3)C2=O [Compound 210, (6R)-17-amino-12-(1-bicyclo[2.2.2]octanyl)-6-hydroxy-6,15-bis(trifluoromethyl)-19-oxa-3,4,12,18-tetrazatricyclo [12.3.1.12,5] nonadeca-1(18),2,4,14,16-pentaen-13-one] | < 500
15 | Nc1cc(C(F)(F)F)c2nc1-c1nnc(o1)[C@@](O)(C(F)(F)F)CCCCCN(Cc1cccc(Br)c1)C2=O [Compound 216, (6R)-17-amino-12-[(3-bromophenyl)methyl]-6-hydroxy-6,15-bis(trifluoromethyl)-19-oxa-3,4,12,18-tetrazatricyclo [12.3.1.12,5] nonadeca-1(18),2,4,14,16-pentaen-13-one] | < 500
16 | Nc1cc(C(F)(F)F)c2nc1-c1nnc(o1)[C@@](O)(C(F)(F)F)CCCCCN(Cc1cc(F)cc(C3CC3)c1)C2=O [Compound 247, (6R)-17-amino-12-[(3-cyclopropyl-5-fluoro-phenyl)methyl]-6-hydroxy-6,15-bis(trifluoromethyl)-19-oxa-3,4,12,18-tetrazatricyclo [12.3.1.12,5] nonadeca-1(18),2,4,14,16-pentaen-13-one] | < 500
17 | CC(=O)N1CC2(CC(N3CCCCC[C@](O)(C(F)(F)F)C4=NN=C(O4)c4nc(c(C(F)(F)F)cc4N)C3=O)C2)C1 [Compound 190, (6R)-12-(2-acetyl-2-azaspiro[3.3]heptan-6-yl)-17-amino-6-hydroxy-6,15-bis(trifluoromethyl)-19-oxa-3,4,12,18-tetrazatricyclo[12.3.1.12,5]nonadeca-1(18),2,4,14,16-pentaen-13-one] | > 1000
18 | CC1CCCCC[C@](O)(C(F)(F)F)C2=NN=C(O2)c2nc(c(C(F)(F)F)cc2N)C1 (single isomer, unassigned) [Compound 56] | < 500
